Test results reported in paper PMC8162347, “Bolaamphiphilic Bis-Dehydropeptide Hydrogels as Potential Drug Release Systems” (Gels, 2021).

Legend:
[1] = Cbz-capped dehydrodipeptides; cited from earlier work
Experimental: Our research group, and others, have reported new dehydropeptides capable of forming hydrogels. The presence of a dehydroamino acid residue imparts increased proteolytic resistance into the hydrogels, as well as different physical properties arising from the decreased structural flexibility of the dehydropeptide chain [13, 14, 15, 16]. In our laboratories, several dehydrodipeptides capped on the N-terminus with naproxen (e.g., Npx-L-Phe-Z-ΔPhe-OH and Npx-L-Trp-Z-ΔPhe-OH) were prepared and tested as hydrogelators, providing hydrogels with critical gelation concentrations (CGCs) of between ... || Figure 1 (A) Our previously studied naproxen- and carboxybenzyl-capped dehydropeptide hydrogelators. (B) Examples of bolaamphiphilic hydrogelators in the literature. (C) Summary of hydrogel properties. (D) Combining the structures of N-capped dehydrohydropeptide gelators and bolaamphiphilic gelators into a single molecule. TEXT PRINTED IN THE PICTURE: (C) a: cgc (wt%): 0.4 (pH: 8.0) | (C) b: cgc (wt%): 0.4 (pH: 6.0) | (C) c: cgc (wt%): 0.1 (pH: 5.0) | (C) d: cgc (wt%): 0.2 (pH: 5.0) | (C) e: cgc (wt%): 2.5 (pH: 2.0) | (C) f: cgc (wt%): 5.0 (pH: 3.3)

[2] = Gelation study, pH trigger with GdL, vial inversion test; assay type: physicochemical; details: for Critical Gelation Concentration (cgc): vial inversion test, water, NaOH (1 M) to circa pH 10, then GDL 0.4 wt %
Description: Nonetheless, dimeric dehydropeptides 1–4 could be dissolved in water upon pH adjustment to pH 10–11, which was achieved by addition of NaOH solution (1 M). Gel formation was triggered by a slow pH drop. The pH change was obtained by the aqueous hydrolysis of added D-glucono-δ-lactone (GdL) to D-gluconic acid. […] The CGCs of hydrogels 1–3 were qualitatively assessed by varying the peptide concentrations and conducting vial inversion tests.
Dehydrodipeptides 1, 2 and 3 were weighed into sample vials, water was added, and the suspension was adjusted under magnetic stirring to circa pH 10 (pH meter) by the addition of NaOH (1 M), and D-glucono-δ-lactone (GDL) was added. The solutions were left standing overnight at room temperature (20–25 °C).

[3] = tested on: HaCaT cell line (human keratinocytes); assay: MTT assay, cell viability; assay type: cell-based; details: 24 h, most concentrations tested, independent of concentration
Experimental: Human keratinocytes cell line HaCaT was from ATCC. Cells were cultured in DMEM supplemented with 10% FBS and 1% penicillin/streptomycin and were incubated at 37 °C, in a humidified atmosphere of 5% CO2.
Cells were seeded in 96-well plates (1.5 × 10^4 cells/well) and left to attach for 24 h. After this period, cells were incubated with different concentrations of the molecules under study for another 24 h. Then, cell viability was evaluated based on the ability of metabolically active cells to convert MTT to formazan over the course of 2 h. Absorbances were measured at 570 nm in a Multiskan GO plate reader (Thermo Fisher Scientific; Waltham, MA, USA) and results were expressed as percentage of the respective control and correspond to the mean ± standard error of the mean (SEM) of at least three independent experiments performed in triplicate. On the other hand, to assess the release of the stable cytosolic enzyme lactate dehydrogenase (LDH) into the media, 24 h after the incubation of the cells with the different concentrations of the molecules under study, 40 µL of culture media were removed to a 96-well plate. LDH released was determined using a CytoTox 96® assay kit (Promega; Madison, WI, USA) according to the manufacturer’s instructions. Then, 1% Triton X-100 was used as positive control to assure cell lysis (30 min). Absorbances were measured at 490 nm in a Multiskan GO plate reader (Thermo Fisher Scientific; Waltham, MA, USA), and results correspond to the fold-increase of absorbance in treated vs. untreated cells of three independent experiments performed in duplicate. Following assessment of the distribution of the results, ANOVA was performed using GraphPad Prism 8.0 (GraphPad Prism Inc., San Diego, CA, USA).

[4] = Oscillatory rheology of hydrogels; assay type: physicochemical; details: hydrogel at structural equilibrium, frequency sweep 100 to 0.1 Hz, strain 0.01%, 25 °C
Description: This is due to the rather small deformation used during this test to allow gel formation without disturbing the build-up of the network structure. In contrast to this, see the data for compounds 1 and 2. A two-step model is often used to describe the nucleation (with rate constant kn) and growth (with rate constant k) of aggregates of peptides:(1) f(t) = G0 + dGρ(e^(1+ρ)kt − 1)/1 + ρe^(1+ρ)kt where ρ = kn/k , G0 is the initial storage modulus of the aggregate-free solution, and dG is the increment in the storage modulus during the kinetics.
After reaching the structural equilibrium established by the reading of constant shear moduli G′ and G″ with time, a frequency-sweep from 100 down to 0.1 Hz was performed with a strain of 0.01% (Figure S6 in Supplementary Information). For hydrogels obtained from compounds 1, 2, and 3, G′ is essentially constant over the frequency domain tested, and it is 10 times larger than G″. Overall, all mechanical spectra are qualitatively similar and reminiscent of the rheological signature of gels, as G′ is higher than G″ for hydrogels of compounds 1–3 (Table 3). ′
After the thermal cycle, gels were submitted to a strain sweep, where the frequency was maintained at 1 Hz. The hydrogels of compounds 2 and 1 break up more easily than hydrogel of compound 3 (Figure 7). […] In summary, and connecting the rheological data to the structural information inferred from both STEM and CD, coil conformers of compound 2 rapidly self-assemble to build a rubber-like (entropic) network, which brings most of the gel elasticity. This is in contrast to the elastically weaker gels of compound 3, which are predominantly made from the networking of fibrils likely formed from beta conformers. Gels of compound 1 show intermediate elasticity, originating from the slower networking of a mixture of coil and beta sheet conformers.
The viscoelastic characterization of hydrogels was performed with a stress-controlled rotational rheometer Anton Paar MCR300 (Anton Paar GmbH, Graz, Austria). Gel-forming solutions were loaded in the shearing geometry (a Couette cell with 1 mL volume and 0.5 mm gap) at 25 °C. The liquid sample was pre-sheared at a shear rate of 5 s^−1 during one minute to homogenize the sample in the shearing geometry. Then, the gelation kinetics was monitored during 10 h by applying a small amplitude (0.001%) oscillatory shear at 1 Hz and recording both storage (G′) and loss (G″) moduli at each second. Then, mechanical spectra were recorded, and gels were submitted to a heating–cooling cycle between 25 and 40 °C at a rate of +/−1 °C/min. Finally, gels were submitted to a strain sweep.

[5] = Sustained release assay of model cargo from hydrogels
Experimental: Hydrogels containing cationic, anionic, or zwitterionic model drugs were prepared using the same conditions described in Section 2.2 but with the water component (1 mL) being replaced by a methylene blue solution, methyl orange solution, or ciprofloxacin solution. In a modified version of the method described by Abraham et al., water was carefully layered on top of the hydrogel surface. Then, the percentage release of model drug was recorded versus time, over 6 days, through UV absorption measurements or by HPLC and then subsequently fitted to a standard calibration curve (Figure S10 in Supplementary Information). The experiments were also assessed visually (Figure 9). […] In the studies involving the release of methyl orange, a clearly visible release of the anionic dye into the layered water solution was observed from the three hydrogels after several days (Figure 9B,D,F centre). The results for the release of methyl orange were also confirmed quantitatively by UV absorption measurements. Hydrogelators 1 and 3, which contain a phenylalanine residue, release nearly 60% of the anionic methyl orange cargo, whereas hydrogel 2, containing a tyrosine residue, released more than 90%. […] Ciprofloxacin was included as an overall neutral cargo. In experiments involving hydrogels of compounds 1–3 containing ciprofloxacin, the amount of ciprofloxacin present in the above water layer was determined by HPLC at various time-points. Hydrogelators 1, 2, and 3 release 32%, 58%, and 20% of their ciprofloxacin cargo, respectively (Table 4) (Figure S11 in Supplementary Information). As observed for methyl orange, the hydrogel that releases the greatest amount of ciprofloxacin is the hydrogel obtained from compound 2 (Table 4, Figure S11 in Supplementary Information).
To quantitatively evaluate the drug release from hydrogels 1–3, several mathematical models were tested to see which one fits the tested hydrogels. The Korsmeyer–Peppas model is the preferred model for polymeric systems. Korsmeyer described a simple relationship that described drug release from a polymeric system that includes both the diffusion and erosion of the polymer chain. The following equation describes the Korsmeyer–Peppas model: Mt/M = Kt^n
Hydrogels of 1, 2, and 3 were prepared as described in Section 4.2 to form 1 mL hydrogels containing the same concentration of the hydrogelators described above and the appropriate cargo (methylene blue ([…]), methyl orange (0.2 nM), or ciprofloxacin (0.2 nM)), in a slightly modified version of the procedure described by Abraham et al.. After allowing to stand overnight, 1.5 mL of water was carefully added to the surface of the hydrogels. Aliquots of the layered solution (100 μL) were removed at 1 h, 2 h, 3 h, 4 h, 6 h, 24 h, 72 h, and 6 days from the time the water was initially layered on top of the hydrogel. After removing each aliquot, the volume water was immediately replaced by an equal volume of water. The concentration of methylene blue or methyl orange in each aliquot was determined by measuring the absorbance at λmax of the dye (666 nm for methylene blue and 465 nm for methyl orange) using a microplate reader and then converting the value to percentage release (using a standard calibration curve). The concentration of ciprofloxacin in each aliquot was determined using analytical HPLC, where the integrated peak area was converted to a percentage release (using a standard calibration curve). Each experiment was performed in triplicate, and the mean percentage cargo release was plotted against time.

[6] = standing overnight at room temperature (20–25 °C)

In the case of Cbz-L-Phe-Z-ΔPhe-OH, the CGC [1] is given as 0.1%.

For `O=C(O)/C(=C/c1ccccc1)NC(=O)[C@H](Cc1ccc(O)cc1)NC(=O)c1ccc2cc(C(=O)N[C@@H](Cc3ccc(O)cc3)C(=O)N/C(=C\c3ccccc3)C(=O)O)ccc2c1` [Compound 4], the Hydrogel formation ([2]; slow pH drop by GdL hydrolysis from pH 10–11, for 4 several triggers (pH, temperature, solvent exchange), 0.3–0.8 wt %) was “failed to give hydrogels”, the “Critical Gelation Concentration (cgc)” value ([2]; overnight at room temperature) was “No hydrogel” and the “Critical Gelation Concentration (cgc)” value [2, 6] was “No hydrogel”. The “Apparent loss of cell viability (mitochondrial activity)” value [3] was “around 20%”.

In the case of `O=C(O)/C(=C/c1ccccc1)NC(=O)[C@H](Cc1ccccc1)NC(=O)c1ccc2cc(C(=O)N[C@@H](Cc3ccccc3)C(=O)N/C(=C\c3ccccc3)C(=O)O)ccc2c1` [Compound 3], the “pH (gelation conditions)” value ([2]; pH of hydrogel at cgc after GDL 0.4 wt %) is reported as 5.30, the “Critical Gelation Concentration (cgc)” value ([2]; overnight at room temperature) is reported as 3.7 mM and the “Critical Gelation Concentration (cgc)” value [2, 6] is reported as 0.3 wt %. For the same compound, the “G′” value [4] was 3.7 × 10^2 Pa, the “G″” value [4] was 1.3 × 10^1 Pa and the “K, release rate constant, Korsmeyer–Peppas model” value ([5]; ciprofloxacin release profile) was 0.0001. The “n, release exponent, Korsmeyer–Peppas model” value ([5]; ciprofloxacin release profile) was 0.6300, the “K, release rate constant, Korsmeyer–Peppas model” value ([5]; methyl orange release profile) was 0.0400 and the “n, release exponent, Korsmeyer–Peppas model” value ([5]; methyl orange release profile) was 0.3300. The “Apparent loss of cell viability (mitochondrial activity)” value [3] was “around 20%”.

In the case of Cbz-L-Tyr-Z-ΔPhe-OH, the CGC [1] is given as 0.1%.
